Experimental data taken from patent publication US4791139A, “Diphenyl ether derivatives and their use as insecticides” (Imperial Chemical Industries PLC, priority 1986, dated 1988).

The compounds below were run on Blattella germanica (cockroach nymphs) (assay: Residual test, cockroach nymphs (BG), Plastic pot). Conditions: 72 h, 500 ppm, 3 days, read-out: BG grading of mortality.
Type: in vivo
In short: (§1)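 Insects placed on host plant or food medium; medium and/or insects treated with aqueous preparations of 100 to 500 ppm Product by weight, made from acetone solutions diluted in water with 0.1% wetting agent. Mortality was then assessed, usually after one to seven days.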

Which mortality at 500 ppm does the source give for `CCOc1ccc(/C(=C\CCc2cccc(Oc3ccccc3)c2)C(F)(F)F)cc1` [Compound 3, E-1,1,1-trifluoro-2-(4-ethoxyphenyl)-5-(3-phenoxyphenyl)pent-2-ene] here?
Its mortality at 500 ppm is 80 to 100%.

For `CCOc1ccc(/C(=C\C=Cc2ccc(F)c(Oc3ccccc3)c2)C(F)(F)F)cc1` [Compound 12, 1,1,1-trifluoro-2-(4-ethoxyphenyl)-5-(4-fluoro-3-phenoxyphenyl)penta-2,4-diene], which mortality at 500 ppm is on record?
Its mortality at 500 ppm is 80 to 100%.

The compounds below were run on Musca domestica (houseflies - adults) (assay: Knockdown test, houseflies - adults (MD/KD), Cotton wool/sugar). Conditions: 500 ppm, 4 hours, read-out: MD/KD grading of knockdown.
Type: in vivo
In short: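 Product was dissolved in acetone and diluted with water containing 0.1% wetting agent to 100–500 ppm. The flies and/or their food medium were treated with the preparation. Mortality was scored 1–7 days after treatment, with an additional knockdown assessment for houseflies.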

`CCOc1ccc(/C(=C\CCc2cccc(Oc3ccccc3)c2)C(F)(F)F)cc1` [Compound 3, E-1,1,1-trifluoro-2-(4-ethoxyphenyl)-5-(3-phenoxyphenyl)pent-2-ene] was tested. Which pest or weed control at 500 ppm did it give?
The pest or weed control at 500 ppm was 80 to 100%.

`CCOc1ccc(/C(=C\C=Cc2ccc(F)c(Oc3ccccc3)c2)C(F)(F)F)cc1` [Compound 12, 1,1,1-trifluoro-2-(4-ethoxyphenyl)-5-(4-fluoro-3-phenoxyphenyl)penta-2,4-diene] was tested. Which pest or weed control at 500 ppm did it give?
The pest or weed control at 500 ppm was 80 to 100%.

The compounds below were run on Nilaparvata lugens (brown plant hopper - nymphs) (assay: Contact test, brown plant hopper - nymphs (NL), Rice plant). Conditions: 72 h, 500 ppm, 3 days, read-out: NL grading of mortality.
Type: in vivo
In short: as §1

Which mortality at 500 ppm does the source give for `CCOc1ccc(/C(=C\CCc2cccc(Oc3ccccc3)c2)C(F)(F)F)cc1` [Compound 3, E-1,1,1-trifluoro-2-(4-ethoxyphenyl)-5-(3-phenoxyphenyl)pent-2-ene] here?
The mortality at 500 ppm was under 50%.

For `CCOc1ccc(/C(=C\C=Cc2ccc(F)c(Oc3ccccc3)c2)C(F)(F)F)cc1` [Compound 12, 1,1,1-trifluoro-2-(4-ethoxyphenyl)-5-(4-fluoro-3-phenoxyphenyl)penta-2,4-diene], which mortality at 500 ppm is on record?
Its mortality at 500 ppm is 80 to 100%.

The compounds below were run on Tetranychus urticae (spider mites - adult) (assay: Contact test, spider mites - adult (TUa), French bean leaf). Conditions: 72 h, 500 ppm, 3 days, read-out: TUA grading of mortality.
Type: in vivo
In short: as §1

`CCOc1ccc(/C(=C\CCc2cccc(Oc3ccccc3)c2)C(F)(F)F)cc1` [Compound 3, E-1,1,1-trifluoro-2-(4-ethoxyphenyl)-5-(3-phenoxyphenyl)pent-2-ene] was tested. Which mortality at 500 ppm did it give?
The mortality at 500 ppm was 50 to 79%.

How did the mortality at 500 ppm turn out when `CCOc1ccc(/C(=C\C=Cc2ccc(F)c(Oc3ccccc3)c2)C(F)(F)F)cc1` [Compound 12, 1,1,1-trifluoro-2-(4-ethoxyphenyl)-5-(4-fluoro-3-phenoxyphenyl)penta-2,4-diene] was run?
The mortality at 500 ppm was under 50%.

The compounds below were run on Myzus persicae (aphids) (assay: Contact test, aphids (MP), Chinese Cabbage leaf). Conditions: 72 h, 500 ppm, 3 days, read-out: MP grading of mortality.
Type: in vivo
In short: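 Aphids on a host plant and/or the plant itself were treated with 100–500 ppm of product, applied from acetone diluted in water containing 0.1% SYNPERONIC NX wetting agent. Mortality was scored usually one to seven days after treatment.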

`CCOc1ccc(/C(=C\CCc2cccc(Oc3ccccc3)c2)C(F)(F)F)cc1` [Compound 3, E-1,1,1-trifluoro-2-(4-ethoxyphenyl)-5-(3-phenoxyphenyl)pent-2-ene] was tested. Which mortality at 500 ppm did it give?
The mortality at 500 ppm was 80 to 100%.

`CCOc1ccc(/C(=C\C=Cc2ccc(F)c(Oc3ccccc3)c2)C(F)(F)F)cc1` [Compound 12, 1,1,1-trifluoro-2-(4-ethoxyphenyl)-5-(4-fluoro-3-phenoxyphenyl)penta-2,4-diene] was tested. Which mortality at 500 ppm did it give?
The mortality at 500 ppm was under 50%.

The compounds below were run on Chilo partellus (Maize stemborer - larvae) (assay: Residual test, Maize stemborer - larvae (CP), Oilseed rape). Conditions: 72 h, 500 ppm, 3 days, read-out: CP grading of mortality.
Type: in vivo
Protocol: The activity of the Product was determined using a variety of insect pests. The Product was used in the form of liquid preparations containing from 100 to 500 parts per million (ppm) by weight of the Product. The preparations were made by dissolving the Product in acetone and diluting the solutions with water containing 0.1% by weight of a wetting agent sold under the trade name "SYNPERONIC" NX until the liquid preparations contained the required concentration of the Product. "SYNPERONIC" is a Registered Trade Mark.
The test procedure adopted with regard to each pest was basically the same and comprised supporting a number of the pests on a medium which was usually a host plant or a foodstuff on which the pests feed, and treating either or both the pests and the medium with the preparations. The mortality of the pests was then assessed at periods usually varying from one to seven days after the treatment.
The results of the tests are given in Table III for each of the Products, at the rate in parts per million given in the second column as a grading of mortality designated as A, B or C wherein A indicates 80-100% mortality or knockdown (70-100% for Meloidogyne incognita), B indicates 50-79% mortality knockdown or knockdown (50-69% for Meloidogyne incognita) and C indicates less than 50% mortality or knockdown.
In Table III the pest organism used is designated by a letter code and the pests species, the support medium or food, and the type and duration of test is given in Table II.
(Maize stemborer - larvae)

Which mortality at 500 ppm does the source give for `CCOc1ccc(/C(=C\CCc2cccc(Oc3ccccc3)c2)C(F)(F)F)cc1` [Compound 3, E-1,1,1-trifluoro-2-(4-ethoxyphenyl)-5-(3-phenoxyphenyl)pent-2-ene] here?
The mortality at 500 ppm was 80 to 100%.

With `CCOc1ccc(/C(=C\C=Cc2ccc(F)c(Oc3ccccc3)c2)C(F)(F)F)cc1` [Compound 12, 1,1,1-trifluoro-2-(4-ethoxyphenyl)-5-(4-fluoro-3-phenoxyphenyl)penta-2,4-diene] as the compound, how does the mortality at 500 ppm read?
The mortality at 500 ppm was 80 to 100%.

Each compound was assayed on Musca domestica (houseflies - adults) (assay: Contact test, houseflies - adults (MD), Cotton wool/sugar). Conditions: 24 h, 500 ppm, 1 day, read-out: MD grading of mortality.
Type: in vivo
In short: as §1

`CCOc1ccc(/C(=C\CCc2cccc(Oc3ccccc3)c2)C(F)(F)F)cc1` [Compound 3, E-1,1,1-trifluoro-2-(4-ethoxyphenyl)-5-(3-phenoxyphenyl)pent-2-ene] was tested. Which mortality at 500 ppm did it give?
Its mortality at 500 ppm is 80 to 100%.

With `CCOc1ccc(/C(=C\C=Cc2ccc(F)c(Oc3ccccc3)c2)C(F)(F)F)cc1` [Compound 12, 1,1,1-trifluoro-2-(4-ethoxyphenyl)-5-(4-fluoro-3-phenoxyphenyl)penta-2,4-diene] as the compound, how does the mortality at 500 ppm read?
Its mortality at 500 ppm is 80 to 100%.

These compounds were tested on Diabrotica balteata (rootworm larvae) (assay: Residual test, rootworm larvae (DB), Filter paper/maize seed). Conditions: 72 h, 500 ppm, 3 days, read-out: DB grading of mortality.
Type: in vivo
In short: as §1

`CCOc1ccc(/C(=C\CCc2cccc(Oc3ccccc3)c2)C(F)(F)F)cc1` [Compound 3, E-1,1,1-trifluoro-2-(4-ethoxyphenyl)-5-(3-phenoxyphenyl)pent-2-ene] was tested. Which mortality at 500 ppm did it give?
The mortality at 500 ppm was 80 to 100%.

Which mortality at 500 ppm does the source give for `CCOc1ccc(/C(=C\C=Cc2ccc(F)c(Oc3ccccc3)c2)C(F)(F)F)cc1` [Compound 12, 1,1,1-trifluoro-2-(4-ethoxyphenyl)-5-(4-fluoro-3-phenoxyphenyl)penta-2,4-diene] here?
Its mortality at 500 ppm is 80 to 100%.

The compounds below were run on Tetranychus urticae (spider mites - ova) (assay: Contact test, spider mites - ova (TUe), French bean leaf). Conditions: 144 h, 500 ppm, 6 days, read-out: TUE grading of mortality.
Type: in vivo
In short: as §1

Which mortality at 500 ppm does the source give for `CCOc1ccc(/C(=C\CCc2cccc(Oc3ccccc3)c2)C(F)(F)F)cc1` [Compound 3, E-1,1,1-trifluoro-2-(4-ethoxyphenyl)-5-(3-phenoxyphenyl)pent-2-ene] here?
Its mortality at 500 ppm is under 50%.

For `CCOc1ccc(/C(=C\C=Cc2ccc(F)c(Oc3ccccc3)c2)C(F)(F)F)cc1` [Compound 12, 1,1,1-trifluoro-2-(4-ethoxyphenyl)-5-(4-fluoro-3-phenoxyphenyl)penta-2,4-diene], which mortality at 500 ppm is on record?
Its mortality at 500 ppm is under 50%.

The compounds below were run on Heliothis virescens (tobacco budworm - larvae) (assay: Residual test, tobacco budworm - larvae (HV), Cotton leaf). Conditions: 72 h, read-out: HV grading of mortality.
Type: in vivo
In short: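 Products applied as acetone solutions diluted in water with 0.1% wetting agent, at 100–500 ppm; pests on host plant or food, with pests and/or medium treated. Mortality or knockdown scored 1–7 days after treatment and graded A (80–100%), B (50–79%) or C (<50%).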

Which mortality at 500 ppm does the source give for `CCOc1ccc(/C(=C\CCc2cccc(Oc3ccccc3)c2)C(F)(F)F)cc1` [Compound 3, E-1,1,1-trifluoro-2-(4-ethoxyphenyl)-5-(3-phenoxyphenyl)pent-2-ene] here?
Its mortality at 500 ppm is 80 to 100%.

How did the mortality at 500 ppm turn out when `CCOc1ccc(/C(=C\C=Cc2ccc(F)c(Oc3ccccc3)c2)C(F)(F)F)cc1` [Compound 12, 1,1,1-trifluoro-2-(4-ethoxyphenyl)-5-(4-fluoro-3-phenoxyphenyl)penta-2,4-diene] was run?
Its mortality at 500 ppm is 80 to 100%.

These compounds were tested on Meloidogyne incognita (Tomato root knot eelworm - larvae) (assay: Residual test, Tomato root knot eelworm - larvae (MI), Semi in-vitro). Conditions: 168 h, rate column 500 ppm, application rate is half that recorded, 7 days, read-out: MI grading of mortality.
Type: in vivo

For `CCOc1ccc(/C(=C\CCc2cccc(Oc3ccccc3)c2)C(F)(F)F)cc1` [Compound 3, E-1,1,1-trifluoro-2-(4-ethoxyphenyl)-5-(3-phenoxyphenyl)pent-2-ene], which mortality at 250 µg/mL is on record?
The mortality at 250 µg/mL was under 50%.

How did the mortality at 250 µg/mL turn out when `CCOc1ccc(/C(=C\C=Cc2ccc(F)c(Oc3ccccc3)c2)C(F)(F)F)cc1` [Compound 12, 1,1,1-trifluoro-2-(4-ethoxyphenyl)-5-(4-fluoro-3-phenoxyphenyl)penta-2,4-diene] was run?
The mortality at 250 µg/mL was 70 to 100%.
